From patent publication US20230145835A1, “Modulators of Alpha-4-beta-7 Integrin and MAdCAM” (48HD Biopharma Inc., priority 2021, published 2023)
Numbered stars: 1 amine (or outer) side, 2 acyl side, 3 side chain; on linkers, the order of the positions; unused ones are H or OH. Bridge positions count the residues as written; N and C are the ends. Peptide text beside a SMILES is read from it. X3 = O=C(/C=N/OCCCCCCOc1cc(C[*:2])cc(C[*:3])c1)[*:1]; X1 = O=C(C=NOCCCCCCOc1cc(C[*:2])cc(C[*:3])c1)[*:1]; X2 = O=C(C=NOCc1cc(C[*:2])cc(C[*:3])c1)[*:1]

Experiments:
rh-integrin α4β7/LPAM-1 [1] = molecular target: T1, rh-integrin α4β7/LPAM-1 (Homo sapiens, UniProt P13612+P26010); assay: Competition Binding Assay (competition ELISA, Example 1)
T1 sequence (P13612 34-977 limits assumed): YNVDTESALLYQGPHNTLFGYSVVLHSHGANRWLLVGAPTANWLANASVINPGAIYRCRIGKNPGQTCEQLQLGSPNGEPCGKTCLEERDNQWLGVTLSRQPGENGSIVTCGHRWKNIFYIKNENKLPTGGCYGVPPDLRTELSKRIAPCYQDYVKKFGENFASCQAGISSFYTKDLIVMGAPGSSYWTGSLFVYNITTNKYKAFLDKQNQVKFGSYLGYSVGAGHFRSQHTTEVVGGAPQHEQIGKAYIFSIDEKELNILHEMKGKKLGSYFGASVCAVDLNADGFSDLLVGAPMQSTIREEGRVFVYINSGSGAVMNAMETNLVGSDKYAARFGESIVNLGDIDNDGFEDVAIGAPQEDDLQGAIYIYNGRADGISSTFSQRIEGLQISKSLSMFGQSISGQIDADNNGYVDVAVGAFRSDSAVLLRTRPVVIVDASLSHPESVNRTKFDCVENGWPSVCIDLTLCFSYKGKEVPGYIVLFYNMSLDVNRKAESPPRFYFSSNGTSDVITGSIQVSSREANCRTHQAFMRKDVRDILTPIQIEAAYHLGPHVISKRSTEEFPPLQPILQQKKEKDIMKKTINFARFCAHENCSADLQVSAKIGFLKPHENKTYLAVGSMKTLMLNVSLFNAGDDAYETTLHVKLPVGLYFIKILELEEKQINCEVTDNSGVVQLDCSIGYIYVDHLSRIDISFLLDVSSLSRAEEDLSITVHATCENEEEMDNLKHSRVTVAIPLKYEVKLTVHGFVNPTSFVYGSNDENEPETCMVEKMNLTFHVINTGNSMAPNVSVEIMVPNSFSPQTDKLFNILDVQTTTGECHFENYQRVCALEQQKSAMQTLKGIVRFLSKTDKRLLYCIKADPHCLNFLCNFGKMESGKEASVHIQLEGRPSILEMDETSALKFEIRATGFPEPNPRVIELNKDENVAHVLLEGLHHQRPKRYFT
T1 sequence (P26010 20-723 limits assumed): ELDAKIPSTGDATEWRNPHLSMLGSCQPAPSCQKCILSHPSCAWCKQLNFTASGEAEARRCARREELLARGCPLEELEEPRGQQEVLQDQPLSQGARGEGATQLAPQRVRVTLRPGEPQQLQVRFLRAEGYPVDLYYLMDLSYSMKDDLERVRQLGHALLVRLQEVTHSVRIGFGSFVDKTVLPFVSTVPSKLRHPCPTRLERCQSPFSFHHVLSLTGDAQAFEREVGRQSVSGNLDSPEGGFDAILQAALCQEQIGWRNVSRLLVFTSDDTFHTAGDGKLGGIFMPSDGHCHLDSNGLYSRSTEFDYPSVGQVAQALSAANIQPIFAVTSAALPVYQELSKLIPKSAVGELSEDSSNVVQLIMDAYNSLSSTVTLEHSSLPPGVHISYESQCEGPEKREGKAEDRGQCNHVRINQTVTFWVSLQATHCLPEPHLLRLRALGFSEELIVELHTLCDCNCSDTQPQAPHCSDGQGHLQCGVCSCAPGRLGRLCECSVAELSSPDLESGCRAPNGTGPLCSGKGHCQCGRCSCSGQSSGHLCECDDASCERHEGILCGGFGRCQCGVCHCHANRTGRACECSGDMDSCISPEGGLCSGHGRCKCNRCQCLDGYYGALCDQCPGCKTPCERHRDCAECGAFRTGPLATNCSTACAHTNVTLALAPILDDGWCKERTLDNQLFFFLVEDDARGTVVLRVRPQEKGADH

rh-integrin α4β7/LPAM-1 [2] = molecular target: T1, rh-integrin α4β7/LPAM-1; assay: α4β7-MadCAM Competition ELISA (Example 4); assay type: binding; settings: IC50, competition ELISA, 4 μg/mL α4β7 coated, MAdCAM and peptide mixture, 28° C.
Method: After washing with wash buffer, 200 μL assay buffer was added to each well and incubated for one hour at 28° C. After another wash with wash buffer, 100 μL of a MAdCAM and peptide mixture in assay buffer was added to each well and incubated for one hour at 28° C., followed by washing with wash buffer.

in vitro = settings: simulated gi fluid
Method: Studies were carried out in simulated intestinal fluid (SIF) to evaluate the intestinal stability of the peptide molecules of the peptides of the instant disclosure. A Fasted State Simulated Intestinal Fluid (FaSSIF) reagent was prepared according to methods known in the art (including addition of the enzyme pancreatin), to which stock peptide solutions were added, incubated, quenched, and analyzed using LCMS/MS.
Percent remaining at each time point was calculated based on the peak area response ratio of test to compound to internal standard. Half-lives were calculated by fitting to a first-order exponential decay equation using GraphPad.

| Compound | IC50 (rh-integrin α4β7/LPAM-1 [1]) [µM] | IC50 (rh-integrin α4β7/LPAM-1 [2]) [µM] | half-life (in vitro) [min] |
| --- | --- | --- | --- |
| CC[C@H](C)[C@@H]1NC(=O)[C@H](CC(=O)O)NC(=O)[C@H](CCSC)NC(=O)[C@@H]2CCCN2C(=O)[C@@H]2CSCc3cc(cc(c3)OCCCCCCO/N=C/C(=O)N[C@@H](CCC(N)=O)C(=O)N2)CSC[C@@H](C(N)=O)NC(=O)[C@H]([C@@H](C)O)NC(=O)[C@@H]2CCCN2C1=O [SEQ ID NO: 23] (QCPMDIPTC-NH2; linker N-2-9 via X3; C-terminus assumed) | 1.32 | – | – |
| CC(C)C[C@@H]1NC(=O)[C@H]([C@@H](C)O)NC(=O)[C@H](CC(=O)O)NC(=O)[C@H](CO)NC(=O)[C@H](CCCNC(=N)N)NC(=O)[C@@H]2CSCc3cc(cc(c3)CSC[C@@H](C(=O)O)NC1=O)CON=CC(=O)N[C@@H](C)C(=O)N2 [SEQ ID NO: 70] (ACRSDTLC-OH; linker N-2-8 via X2) | 111 | 111 | – |
| N=C(N)NCCC[C@@H]1NC(=O)CNC(=O)[C@H](Cc2ccc(O)cc2)NC(=O)[C@H](Cc2c[nH]c3ccccc23)NC(=O)[C@H](Cc2c[nH]cn2)NC(=O)[C@@H]2CSCc3cc(cc(c3)OCCCCCCON=CC(=O)N[C@@H](CCC(N)=O)C(=O)N2)CSC[C@@H](C(=O)O)NC(=O)[C@H](CO)NC1=O [SEQ ID NO. 19] (QCHWYGRSC-OH; linker N-2-9 via X1) | – | – | > 480 |
| O=C(O)CCCc1ccc(N(CCCl)CCCl)cc1 [Chlorambucil, chlorambucil, reference compound] | – | – | 37.6 |
| CC(C)C[C@@H]1NC(=O)[C@H]([C@@H](C)O)NC(=O)[C@H](CC(=O)O)NC(=O)[C@H](CO)NC(=O)[C@H](CCCNC(=N)N)NC(=O)[C@@H]2CSCc3cc(cc(c3)OCCCCCCO/N=C/C(=O)N[C@@H](C)C(=O)N2)CSC[C@@H](C(N)=O)NC1=O [SEQ ID NO: 25] (ACRSDTLC-NH2; linker N-2-8 via X3; C-terminus assumed) | 79.8 | – | – |
